Measured values from ChEMBL document CHEMBL1152860, “Synthesis and antiproliferative activity of 3-amino-N-phenyl-1H-indazole-1-carboxamides” (2009).
Active and inactive are the calls of the source. The rule behind the calls is not given here.

Tests used:
UO-31 = experiment: Growth inhibition of human UO31 cells after 48 hrs by SRB assay; type: functional; conditions: UO-31, 48 h
K562 [1] = experiment: Cell cycle arrest in human K562 cells assessed as accumulation at G0/G1 phase at 1.2 uM after 24 hrs using propidium iodide staining by flow cytometry; type: functional, cell-based
K562 [2] = experiment: Cell cycle arrest in human K562 cells assessed as decrease in accumulation at S phase at 1.2 uM after 24 hrs using propidium iodide staining by flow cytometry; type: functional, cell-based
HOP-92 = experiment: Growth inhibition of human HOP92 cells after 48 hrs by SRB assay; type: functional; conditions: HOP-92, 48 h
K562 [3] = experiment: Decrease in total phosphorylated retinoblastoma protein level in human K562 cells at 14 uM after 24 hrs by flow cytometry; type: functional, cell-based
MOLT-4 = experiment: Growth inhibition of human MOLT4 cells after 48 hrs by SRB assay; type: functional; conditions: MOLT-4, 48 h; for CC50: read-out: LC50 (the source's name)
EKVX = experiment: Growth inhibition of human EKVX cells after 48 hrs by SRB assay; type: functional
OVCAR-5 = experiment: Growth inhibition of human OVCAR5 cells after 48 hrs by SRB assay; type: functional; conditions: OVCAR-5, 48 h
SK-MEL-2 = experiment: Growth inhibition of human SK-MEL-2 cells after 48 hrs by SRB assay; type: functional; conditions: SK-MEL-2, 48 h
K562 [4] = experiment: Cell cycle arrest in human K562 cells assessed as decrease in accumulation at G2/M phase at 1.2 uM after 24 hrs using propidium iodide staining by flow cytometry; type: functional, cell-based
Malme-3M = experiment: Growth inhibition of human MALME-3M cells after 48 hrs by SRB assay; type: functional
K562 [5] = experiment: Growth inhibition of human K562 cells after 48 hrs by SRB assay; type: functional; conditions: K562, 48 h
ACHN = experiment: Growth inhibition of human ACHN cells after 48 hrs by SRB assay; type: functional
786-0 = experiment: Growth inhibition of human 786-0 cells after 48 hrs by SRB assay; type: functional; conditions: 786-0, 48 h
MDA-MB-231 = experiment: Growth inhibition of human MDA-MB-231 cells after 48 hrs by SRB assay; type: functional; conditions: MDA-MB-231, 48 h
OVCAR-3 = experiment: Growth inhibition of human OVCAR-3 cells after 48 hrs by SRB assay; type: functional; conditions: OVCAR-3, 48 h
HCT-15 = experiment: Growth inhibition of human HCT15 cells after 48 hrs by SRB assay; type: functional; conditions: HCT-15, 48 h
K562 [6] = experiment: Cell cycle arrest in human K562 cells assessed as decrease in accumulation at S phase at 15.9 uM after 24 hrs using propidium iodide staining by flow cytometry; type: functional, cell-based
K562 [7] = experiment: Decrease in total phosphorylated retinoblastoma protein level in human K562 cells at 34 uM after 24 hrs by flow cytometry; type: functional, cell-based
K562 [8] = experiment: Cell cycle arrest in human K562 cells assessed as accumulation at G0/G1 phase at 15.9 uM after 24 hrs using propidium iodide staining by flow cytometry; type: functional, cell-based
K562 [9] = experiment: Cell cycle arrest in human K562 cells assessed as decrease in accumulation at G2/M phase at 15.9 uM after 24 hrs using propidium iodide staining by flow cytometry; type: functional, cell-based
CCRF-CEM = experiment: Growth inhibition of human CCRF-CEM cells after 48 hrs by SRB assay; type: functional
[10] = read-out: LC50 (the source's name)

Compound | GI50 (UO-31) | GI50 (HOP-92) | GI50 (MOLT-4) | TGI (MOLT-4) | CC50 (MOLT-4) | GI50 (EKVX) | GI50 (OVCAR-5) | GI50 (Malme-3M) | GI50 (K562 [5]) | GI50 (ACHN) | GI50 (786-0) | GI50 (MDA-MB-231) | GI50 (OVCAR-3) | GI50 (HCT-15) | also measured
Nc1nn(C(=O)Nc2ccc(Cc3ccccc3)cc2)c2ccccc12 | 0.347 µM | 14.2 µM | 0.636 µM | 20.4 µM | > 100 µM | 11.2 µM | 31.3 µM | 19.2 µM | 1.2 µM | 1.69 µM | 3.76 µM | 0.847 µM | 6.23 µM | 1.08 µM | TGI (UO-31): > 100 µM; CC50 (UO-31; [10]): > 100 µM; Activity (K562 [1]): Active; Activity (K562 [2]): Active; Activity (K562 [3]): Active; GI50 (SK-MEL-2): 36.4 µM; Activity (K562 [4]): Active; LC50 (concentration killing 50% of cells) (K562 [5]): > 100 µM; TGI (K562 [5]): 33.8 µM; TGI (ACHN): 33.4 µM; CC50 (ACHN; [10]): > 100 µM; TGI (MDA-MB-231): 43.9 µM; CC50 (MDA-MB-231; [10]): > 100 µM; TGI (HCT-15): > 100 µM; CC50 (HCT-15; [10]): > 100 µM
CCCCOc1ccc(NC(=O)n2nc(N)c3ccccc32)cc1 | 17.5 µM | 18.6 µM | 4.48 µM | 46.2 µM | > 100 µM | 13.3 µM | 20 µM | 14.7 µM | 15.9 µM | 22.8 µM | 21 µM | 13.8 µM | 18.8 µM | 15.5 µM | Activity (K562 [6]): Active; Activity (K562 [7]): Active; Activity (K562 [8]): Active; Activity (K562 [9]): Active; GI50 (CCRF-CEM): 0.213 µM; LC50 (CCRF-CEM): > 100 µM; TGI (CCRF-CEM): 17.5 µM
